Laboratory results from PMC6063804 (EJNMMI Research, 2018).
“And” between values parts separate entries of the source, which are not always exact repeats. Equal entries are not always repeated.

System: ion channel binding site of NMDA receptors
Experiment: [^18F]PK-209 brain PET, baseline versus S-ketamine infusion
Type: in vivo, human
Details: for V ND / k 3 / K i / % ΔKi: individual subjects S6–S10; for K i: net influx rate; for % ΔKi: percentage change from the baseline scan after ketamine
Experimental: In total, 20 PET scans were acquired on a Gemini TF-64 PET/CT scanner (Philips Medical Systems, Cleveland, OH, USA). Five subjects underwent [^18F]PK-209 test–retest (TRT) scans 31–61 days apart over a period of 211 days. Another five subjects underwent baseline and ketamine scans 13–161 days apart over a period of 258 days. At the start of each scan [^18F]PK-209 was injected as an intravenous bolus with a mean injected activity of 187 ± 7 MBq. All scans were performed between 12:00 and 15:00 h to minimize diurnal variation. Duration of daylight on each scan day was calculated to investigate seasonal changes in tracer binding. Dynamic PET data were acquired for 120 min and binned into 25 time frames (1 × 15, 3 × 5, 3 × 10, 4 × 60, 2 × 150, 2 × 300, 10 × 600 s). PET was followed by a low-dose CT (30 mAs, 120 kVp) for attenuation correction and localization. Data were reconstructed using a three-dimensional row action maximum likelihood reconstruction algorithm (3-D RAMLA). Acquired PET data were normalized and corrected for dead time, randoms, scatter, attenuation, and decay.
The (S+)-isomer of ketamine (0.5 mg · kg^−1) was dissolved in NaCl 50 mL and administered intravenously in a pseudo-steady state model with a sub-acute loading dose. First, ketamine was administered for 40 min at a rate of 0.006 mg · kg^−1 · min^−1 followed by a 130 min equilibrium phase at 0.002 mg · kg^−1 · min^−1. [^18F]PK-209 injection and start of PET were performed at 10 min into the equilibrium phase, following 0.26 mg · kg^−1 administration in the preceding 50 min.
Prior to the PET studies, structural three-dimensional coronal T1-weighted magnetic resonance images (MRI) were acquired for all subjects on a 1.5T Sonata scanner (Siemens Medical Solutions, Erlangen, Germany) with 160 coronal slices using echo time 3.97 ms, repetition time 2700 ms, flip angle 8°, and voxel size 1.0 × 1.5 × 1.0 mm^3. Subject motion was checked by visual inspection of the alignment of intrasubject PET frames, and no frames were excluded due to excessive movement. T1-weighted MRI scans were co-registered to an average of the PET frames from ~ 4–70 min p.i. using VINCI software. The co-registered MRI scans were segmented into gray matter (GM), white matter, and extra-cerebral fluid, using PVE-lab. Subsequently, 68 regions of interest (ROIs), including whole brain, were derived from the Hammers atlas and used to extract GM time-activity curves (TACs). As a last step, the TACs of 60 out of the 67 ROIs were redefined into nine volume-weighted ROIs by combining the radioactivity at each timepoint according to the equation Bq¯=∑iαi×Bqi/∑iαi , where αi is the volume (in mm^3) of region i, and Bqi the counts per mm^3 of region i. The selection of ROIs was based on the widespread NMDA-R availability in the brain: frontal, temporal, occipital, and parietal cortices; hippocampus; thalamus; insula; brainstem; dorsal striatum; and cerebellum, as well as whole brain GM from the Hammers atlas. Standardized uptake values (SUV; equalling measured activity divided by injected dose per body weight) were calculated for whole brain GM.
Using the metabolite-corrected arterial plasma input function, all GM TACs were fitted to single-tissue (1T2k), two-tissue irreversible (2T3k), and reversible (2T4k) compartmental models, both with and without an additional parameter for fractional blood volume (VB). The non-metabolite-corrected arterial whole blood curve was used as input function for VB. The optimal tracer kinetic model for describing in vivo kinetics of [^18F]PK-209 was determined according to the Akaike Information Criterion (AIC). Depending on the model preference, outcome measures were the net influx constant (Ki = K1 k3/(k2 + k3)) or the distribution volume (VT=K1/k2(1+k3/k4)) . For subsequent group level analysis (e.g., TRT variability and ketamine effects), all scans were analyzed using the same, most preferred, tracer kinetic model. […]

[1] = 2T3k_VB, single scan IF, baseline scan
[2] = 2T3k_VB, single scan IF, ketamine scan
[3] = mean ketamine versus mean baseline, single scan IF

## CSc1ccc(Cl)c(NC(=N)N(C)c2cccc(OC[18F])c2)c1 [[^18F]PK-209, 3-(2-chloro-5-(methylthio)phenyl)-1-(3-([^18F]fluoromethoxy)phenyl)-1-methylguanidine]
2T3k_VB, population IF
  Mean baseline K i: 0.0106 min⁻¹
  Mean ketamine K i: 0.0107 min⁻¹
2T3k_VB, single scan IF
  Mean baseline K 1: 0.492 mL · cm^3 · min^−1
  Mean baseline K i: 0.0129 min⁻¹
  Mean baseline V ND: 9.25
  Mean baseline k 3: 0.0016 min⁻¹
  Mean ketamine K 1: 0.516 mL · cm^3 · min^−1
  Mean ketamine K i: 0.0128 min⁻¹
  Mean ketamine V ND: 9.22
  Mean ketamine k 3: 0.0015 min⁻¹
[1]
  V ND: 9.78 and 6.54 and 11.72 and 7.74 and 10.51
  k 3: 0.0005 min⁻¹ and 0.0029 min⁻¹ and 0.0007 min⁻¹ and 0.0026 min⁻¹ and 0.0014 min⁻¹
  K i: 0.0046 min⁻¹ and 0.0182 min⁻¹ and 0.0083 min⁻¹ and 0.0193 min⁻¹ and 0.0143 min⁻¹
[2]
  V ND: 9.66 and 9.75 and 10.30 and 6.56 and 9.84
  k 3: 0.0014 min⁻¹ and 0.0012 min⁻¹ and 0.0008 min⁻¹ and 0.0020 min⁻¹
  K i: 0.0129 min⁻¹ and 0.0118 min⁻¹ and 0.0084 min⁻¹ and 0.0124 min⁻¹ and 0.0186 min⁻¹
2T3k_VB, within-subject IF
  Mean baseline K i: 0.0147 min⁻¹
  Mean ketamine K i: 0.0162 min⁻¹
Baseline scans
  mean SUV90–120: 1.53
  mean SUVAUC: 289 ± 51 SUV·min
In vivo
  increase in mean SUV90–120 from baseline to ketamine scans: 10%
Individual subjects 6–10
  increase in whole brain SUVAUC following ketamine administration: 27% and 1% (2×) and 17% and 8%
Ketamine scans
  mean SUV90–120: 1.68
  mean SUVAUC: 321 ± 66 SUV·min
Mean ketamine versus mean baseline, population IF
  % Change of mean K i: 1%
[3]
  % Change of mean K 1: 5%
  % Change of mean K i: −1%
  % Change of mean k 3: −9%
Mean ketamine versus mean baseline, within-subject IF
  % Change of mean K i: 10%
2T3k_VB, population IF, baseline scan
  K i: 0.0071 min⁻¹ and 0.0150 min⁻¹ and 0.0183 min⁻¹ and 0.0114 min⁻¹ and 0.0011 min⁻¹
2T3k_VB, population IF, ketamine scan
  K i: 0.0152 min⁻¹ and 0.0162 min⁻¹ and 0.0167 min⁻¹ and 0.0044 min⁻¹ and 0.0010 min⁻¹
2T3k_VB, within-subject IF, baseline scan
  K i: 0.0038 min⁻¹ and 0.0170 min⁻¹ and 0.0220 min⁻¹ and 0.0200 min⁻¹ and 0.0105 min⁻¹
2T3k_VB, within-subject IF, ketamine scan
  K i: 0.0128 min⁻¹ and 0.0169 min⁻¹ and 0.0201 min⁻¹ and 0.0118 min⁻¹ and 0.0192 min⁻¹
Population IF
  % ΔKi: 113% and 8% and −9% and −62% and −10%
Single scan IF
  % ΔKi: 182% and 1% and 30%
within-subject IF
  % ΔKi: 237% and 0% and 83%
Subjects 8 and 9, respectively
  decrease in K1 after ketamine: 18% and 11%
